{
  "source": "patent US11733142B2",
  "about": "“Antimicrobic susceptibility testing using digital microscopy” (Beckman Coulter, Inc., priority 2017, dated 2023)",
  "key": {"[1]": {"system": "E. coli", "assay": "Antimicrobic susceptibility testing (AST) by digital microscopy: count sum, area sum, area/count ratio", "format": "cell-based", "method": "FIGS. 7-23 illustrate various features and steps of optimized AST method 101 (FIG. 19). In some versions, system 1 as discussed above may be used to facilitate some or all of the features provided in optimized AST method 101. Optimized AST method 101 includes performing an image analysis cycle 102 repetitively until a MIC is determined. FIG. 8 provides several exemplary digital microscopy parameters for use in optimized AST method 101. Test well 20 is embodied by a “384” style test well, having a clear viewing bottom. The volume of inoculum in test well 20 may be set to 20 microliters to reduce the amount of materials such as bulk diluents required by AST method 101 and/or minimize light artifacts and provide sampling of a consistent number of microbes from the 1:250 dilution of the 0.5 MacFarland inoculum. […] the volume of inoculum in test well 20 generally increases the light artifacts. In some instances, capturing a single vertical plane 103 at 20× objective whereby AST camera 35 is set at 0.33 microns/pixel may be sufficient for sampling the inoculum and ensuring that each individual microbe is recognizable. However, these parameters are configurable and may change as desired by the user or the underlying needs of the system. Capturing three focal sites spaced about 5 microns apart within single vertical plane 103 may also provide a sufficient number of microbes in the sample to count for use in optimized AST method 101. These three focal sites are labeled site 105, site 107, and site 109 in FIG. 8. In an exemplary version of optimized AST method 101, each focal site is approximately 700×700 microns within single vertical plane 103, rather than capturing three sites in three different vertical planes. AST camera 35, optics system 9, and computer 49 are configured to capture an image of each focal site in consecutive time periods, manipulate each of these images, and thereafter use the data derived from these manipulated images to make a MIC determination. Image analysis cycle 102 is generally depicted in FIG. 9 and comprises an image capture step 111, an image enhancement step 113, an image segmentation step 115, and an object counting step 117. Optimized AST method 101 includes performing image analysis cycle 102 repetitively until a MIC is determined. Image analysis cycle 102 utilizes one or more instances of computer 49 and the various elements thereof to perform image capture step 111, image enhancement step 113, image segmentation step 115, and object counting step 117, as well as any sub steps provided therein. Once image segmentation step 115 generates segmented image 143, image segmentation step 115 proceeds to object counting step 117. In object counting step 117, the background and foreground pixels are considered to derive information regarding the number of microbes in the sample, the area occupied by the microbes in the sample, and the ratio between the number of microbes and the area occupied by the microbes. In some versions of object counting step 117, the actual microbe count is compared with an average microbe count to determine if an error occurred within the image capture process. The comparison may incorporate a standard deviation with the average microbe count to generalize the microbe comparison. Object counting step 117 may be configured to derive information regarding the ratio between the total area occupied by all of the microbes in the image and the total count of microbes. This information may be useful by determining whether the microbes are undergoing elongation over time. Elongation is a precursor to death and indicates the concentration of the antimicrobic dilution is negatively affecting the microbes. More specifically, elongation may occur when microbes such as bacteria encounter an effective amount of antibiotic drugs. Once object counting step 117 derives the desired information from segmented image 143, image analysis cycle 102 terminates. […]"}, "[2]": {"system": "gram negative bacteria carrying the Klebsiella pneumonia carbapenemase (KPC) resistance mechanism", "assay": "Growth pattern combined with fluorogenic pH test (MEU) to detect resistance and predict MIC", "format": "cell-based", "settings": "predicted if pH changes in Meropenem well within 1-2 hours and the growth pattern is identified", "from_the_text": "The growth pattern information derived from optics system 9 may also be combined with a fluorogenic test measuring a change in pH to detect some mechanisms of resistance in the microbes being tested. As an example, one of the fluorogenic test substrates could be an antimicrobial agent. Degradation of the antimicrobial agent leads to a change in the pH of the medium within two hours after inoculation, and the pH change can be detected with an indicator that changes fluoresces with changes in pH. Combining the information on the growth patterns (cell count, area, and area/count), as described above, along with an indication that the antimicrobial agent has degraded provides a way to quickly ascertain if the microbe is resistant and helps to determine the MIC of the organism.\nFor example, the antibiotic Meropenem is enzymatically degraded by microbes such as gram negative bacteria carrying the Klebsiella pneumonia carbapenemase (KPC) resistance mechanism. If Meropenem is degraded, the medium drops in pH. The fluorogenic pH indicator, MEU (methyllumbeliferone) will change (decrease) in fluorescence with that change. This change occurs within 1 to 2 hours. […]"}},
  "data": [
    {"smiles": "CO/N=C(\\C(=O)N[C@@H]1C(=O)N2C(C(=O)O)=C(CSc3nc(=O)c(=O)[nH]n3C)CS[C@H]12)c1csc(N)n1", "note": "[Cax]", "values": [
      {"measurement": "effect on bacteria count", "setting": "[1]; E. coli sample, Cax 0.12 dilution compared with Growth sample (FIG. 20A)", "result": "no effect"},
      {"measurement": "MIC", "setting": "[1]; E. coli sample, from count sum data (FIG. 20A)", "result": 0.25, "unit": "µg/mL"},
      {"measurement": "area/count ratio (elongation spike)", "setting": "[1]; E. coli, Cax 0.25 and higher dilutions (FIG. 20C), No Growth line approximately 4.0", "result": "above 8.0"},
      {"measurement": "minimum amount of antibiotic to have the desired effect on the area occupied by the bacteria", "setting": "[1]; E. coli, from area sum data (FIG. 20B)", "result": 0.25},
      {"measurement": "MIC", "setting": "[1]; E. coli, from area/count ratio data, elongation spike (FIG. 20C)", "result": 0.25, "unit": "µg/mL"}
    ]},
    {"smiles": "CO/N=C(\\C(=O)N[C@@H]1C(=O)N2C(C(=O)[O-])=C(C[N+]3(C)CCCC3)CS[C@H]12)c1csc(N)n1", "note": "[Cefepime]", "values": [
      {"measurement": "MIC", "setting": "[1]; E. coli sample, bacteria count data at around the 200-minute mark (FIG. 21)", "result": 0.06, "unit": "µg/mL"},
      {"measurement": "MIC", "setting": "[1]; E. coli sample, ratio data at around the 120-minute mark (FIG. 22)", "result": 0.06, "unit": "µg/mL"}
    ]},
    {"smiles": "C[C@@H](O)[C@H]1C(=O)N2C(C(=O)O)=C(S[C@@H]3CN[C@H](C(=O)N(C)C)C3)[C@H](C)[C@H]12", "note": "[Meropenem]", "values": [
      {"measurement": "MIC", "setting": "[2]", "result": "greater than 1 mcg/ml"}
    ]},
    {"smiles": "CC1(C)S[C@@H]2[C@H](NC(=O)[C@H](N)c3ccccc3)C(=O)N2[C@H]1C(=O)O", "note": "[ampicillin]", "values": [
      {"measurement": "growth morphology after exposure", "setting": "[1]; E. coli exposed to a dilution of ampicillin (FIG. 17) vs free from ampicillin (FIG. 18)", "result": "abnormal growth in the form of elongation"}
    ]}
  ]
}
